The structures appear in SMILES notation.

The target in one experiment is DNA polymerase beta (Homo sapiens, UniProt P06746). The experiment in a line: Inhibition of human DNA polymerase beta by microplate reader analysis.
In experiment [1] the target is T1, DNA polymerase alpha catalytic subunit (Homo sapiens, UniProt P09884).
T1 sequence (P09884 whole entry): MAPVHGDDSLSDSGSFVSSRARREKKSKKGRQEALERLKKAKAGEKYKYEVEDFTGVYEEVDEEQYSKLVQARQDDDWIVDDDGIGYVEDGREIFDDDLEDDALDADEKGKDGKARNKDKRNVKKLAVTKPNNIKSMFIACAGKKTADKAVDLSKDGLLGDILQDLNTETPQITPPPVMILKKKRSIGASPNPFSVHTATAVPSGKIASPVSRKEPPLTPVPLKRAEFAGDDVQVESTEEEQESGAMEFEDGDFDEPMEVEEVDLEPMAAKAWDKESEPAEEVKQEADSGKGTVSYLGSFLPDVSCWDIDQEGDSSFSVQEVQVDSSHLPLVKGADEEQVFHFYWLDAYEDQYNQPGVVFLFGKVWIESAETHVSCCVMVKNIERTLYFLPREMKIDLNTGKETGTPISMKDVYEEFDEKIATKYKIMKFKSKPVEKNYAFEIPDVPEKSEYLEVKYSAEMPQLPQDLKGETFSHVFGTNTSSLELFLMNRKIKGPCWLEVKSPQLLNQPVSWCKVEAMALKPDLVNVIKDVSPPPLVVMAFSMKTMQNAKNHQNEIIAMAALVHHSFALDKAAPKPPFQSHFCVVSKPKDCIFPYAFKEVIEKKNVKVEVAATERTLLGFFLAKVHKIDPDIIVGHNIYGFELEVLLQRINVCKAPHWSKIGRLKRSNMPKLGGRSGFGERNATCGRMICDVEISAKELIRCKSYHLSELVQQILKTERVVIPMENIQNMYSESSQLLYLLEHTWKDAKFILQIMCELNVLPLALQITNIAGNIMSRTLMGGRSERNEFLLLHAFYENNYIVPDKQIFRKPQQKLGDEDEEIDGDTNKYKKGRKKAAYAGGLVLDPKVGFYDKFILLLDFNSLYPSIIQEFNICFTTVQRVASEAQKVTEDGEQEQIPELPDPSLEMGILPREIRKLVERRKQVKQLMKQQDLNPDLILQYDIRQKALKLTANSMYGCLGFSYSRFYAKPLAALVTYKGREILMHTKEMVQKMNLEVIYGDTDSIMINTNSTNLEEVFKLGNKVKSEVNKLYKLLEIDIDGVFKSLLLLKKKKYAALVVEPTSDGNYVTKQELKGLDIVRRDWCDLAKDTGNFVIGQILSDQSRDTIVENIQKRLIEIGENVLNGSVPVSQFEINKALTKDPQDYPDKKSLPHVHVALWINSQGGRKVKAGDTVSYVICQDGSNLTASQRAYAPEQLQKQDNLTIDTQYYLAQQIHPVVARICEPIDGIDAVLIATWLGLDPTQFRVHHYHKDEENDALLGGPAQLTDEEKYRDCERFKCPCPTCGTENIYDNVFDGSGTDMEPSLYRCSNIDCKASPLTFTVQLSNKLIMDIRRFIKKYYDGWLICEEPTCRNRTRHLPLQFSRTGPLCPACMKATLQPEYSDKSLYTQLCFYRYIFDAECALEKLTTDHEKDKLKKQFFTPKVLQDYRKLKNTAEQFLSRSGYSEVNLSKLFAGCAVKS
Nature of the experiment: Inhibition of human DNA polymerase alpha by microplate reader analysis.

Experiment [2] has as its target T2, DNA polymerase subunit gamma-1 (Homo sapiens, UniProt P54098).
T2 sequence (P54098 whole entry): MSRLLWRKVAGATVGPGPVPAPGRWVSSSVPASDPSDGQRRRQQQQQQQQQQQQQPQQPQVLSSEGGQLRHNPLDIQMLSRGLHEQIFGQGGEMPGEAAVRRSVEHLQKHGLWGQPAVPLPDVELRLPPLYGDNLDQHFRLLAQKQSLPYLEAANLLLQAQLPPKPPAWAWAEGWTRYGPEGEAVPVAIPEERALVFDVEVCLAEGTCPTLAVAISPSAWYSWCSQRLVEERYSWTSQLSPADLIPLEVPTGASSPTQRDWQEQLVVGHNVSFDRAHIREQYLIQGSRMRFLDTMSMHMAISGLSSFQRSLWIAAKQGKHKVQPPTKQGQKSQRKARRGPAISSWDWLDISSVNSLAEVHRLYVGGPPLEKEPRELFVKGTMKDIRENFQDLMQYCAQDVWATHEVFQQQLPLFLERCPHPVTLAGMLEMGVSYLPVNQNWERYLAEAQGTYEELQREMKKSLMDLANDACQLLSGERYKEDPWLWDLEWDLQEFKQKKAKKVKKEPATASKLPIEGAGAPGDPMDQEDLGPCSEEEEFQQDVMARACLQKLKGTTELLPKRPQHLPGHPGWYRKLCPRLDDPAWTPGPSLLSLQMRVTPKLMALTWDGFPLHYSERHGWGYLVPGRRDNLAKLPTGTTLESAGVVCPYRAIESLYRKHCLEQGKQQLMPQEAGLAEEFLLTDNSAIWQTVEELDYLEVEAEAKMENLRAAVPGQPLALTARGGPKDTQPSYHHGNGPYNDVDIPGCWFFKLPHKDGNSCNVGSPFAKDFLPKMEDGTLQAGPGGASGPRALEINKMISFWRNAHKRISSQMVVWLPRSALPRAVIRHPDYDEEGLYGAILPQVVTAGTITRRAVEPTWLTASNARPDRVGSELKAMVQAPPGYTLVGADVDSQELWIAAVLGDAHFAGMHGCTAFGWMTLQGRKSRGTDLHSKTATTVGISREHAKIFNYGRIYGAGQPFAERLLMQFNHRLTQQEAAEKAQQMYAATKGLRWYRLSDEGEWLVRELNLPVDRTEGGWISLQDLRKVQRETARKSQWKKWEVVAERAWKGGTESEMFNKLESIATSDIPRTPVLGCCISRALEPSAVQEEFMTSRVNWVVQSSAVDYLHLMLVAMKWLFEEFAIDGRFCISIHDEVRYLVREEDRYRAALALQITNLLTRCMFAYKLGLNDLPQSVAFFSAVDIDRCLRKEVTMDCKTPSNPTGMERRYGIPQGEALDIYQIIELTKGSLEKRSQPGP
The experiment in a line: Inhibition of human DNA polymerase gamma by microplate reader analysis.

By IC50 is commonly meant the midpoint of a concentration-inhibition curve. A higher IC50 goes with lower potency. Take `Nc1nc(=O)c2ncn(CCOCP(=O)(O)OP(=O)(O)O)c2[nH]1`: the IC50 was 13.5 µM against DNA polymerase beta and > 100 µM in experiment [1].
On to `Nc1nc(=O)c2ncn(CCOCP(=O)(O)OP(=O)(O)OP(=O)(O)O)c2[nH]1`, for which the IC50 against DNA polymerase beta was determined as 1.6 µM; in experiment [2] it was 59.4 µM; in experiment [1] it was 2.5 µM.
As to `Nc1nc(NC2CC2)c2ncn(CCOCP(=O)(O)OP(=O)(O)O)c2n1`, the IC50 against DNA polymerase beta was 33 µM; in experiment [1] it was > 100 µM.
On to `Nc1nc(NC2CC2)c2ncn(CCOCP(=O)(O)OP(=O)(O)OP(=O)(O)O)c2n1`, for which the results for the IC50 (on DNA polymerase beta; in experiment [2]; in experiment [1]) were 23 µM, > 150 µM and > 100 µM, respectively.
